Activity calls are given as the source filed them. No cut-off for these calls is given here.
How the values were obtained:
[1] = test system: Hepatitis C virus; test: Inhibition of Hepatitis C virus genotype 1b NS5B polymerase; design: species or system Hepatitis C virus subtype 1b
[2] = Inhibition of Hepatitis C virus genotype 1a NS5B polymerase; design: species or system Hepatitis C virus subtype 1a
[3] = test system: Hepatitis C virus; test: Antiviral activity against Hepatitis C virus genotype 1b 1389 infected in human HuH5.2 cells assessed as inhibition of viral replication after 72 hrs by luciferase reporter gene assay; format: functional, organism-based, Hepacivirus hominis; conditions: genotype 1b 1389, Huh-5-2, 72 h
[4] = Cytotoxicity against human HuH5.2 cells after 1.5 hrs by MTS assay; format: cell-based, Huh-5-2
[5] = test system: Hepatitis C virus genotype 4; test: Inhibition of Hepatitis C virus genotype 4 NS5B polymerase at 10 uM
[6] = test system: Hepatitis C virus; test: Inhibition of Hepatitis C virus genotype 1b 1389 NS5B polymerase; design: species or system Hepatitis C virus subtype 1b

Row | SMILES | IC50 [1] | IC50 [2] | inhibition [5] | further results
1 | CC(C)CCNn1c(=O)c(C2=NS(=O)(=O)c3ccccc3N2)c(O)c2ccccc21 | 134 nM | 629 nM |  | 
2 | O=c1c(C2=NS(=O)(=O)c3ccccc3N2)c(O)c2ccccc2n1NCc1ccccc1 | 129 nM | 5090 nM |  | 
3 | CCCCn1cc(C2=NS(=O)(=O)c3cc(NS(C)(=O)=O)ccc3N2)c2cc(Br)ccc21 |  |  | 60% | EC50 [3]: 7700 nM; CC50 at 1.5 h [4]: 49200 nM
4 | O=c1c(C2=NS(=O)(=O)c3ccccc3N2)c(O)c2ccccc2n1NCc1ccccc1Br | 469 nM | 6720 nM |  | 
5 | Cc1c(C2=NS(=O)(=O)c3ccccc3N2)c2ccccc2n1Cc1ccccc1 |  |  | inactive | 
6 | C=CCn1cc(C2=NS(=O)(=O)c3ccccc3N2)c2ccccc21 |  |  | inactive | CC50 at 1.5 h [4]: > 50000 nM
7 | CC(C)CNn1c(=O)c(C2=NS(=O)(=O)c3ccccc3N2)c(O)c2ccccc21 | 101 nM | 941 nM |  | 
8 | CC(C)CCn1cc(C2=NS(=O)(=O)c3cc(Br)cnc3N2)c2ccccc21 |  |  | inactive | EC50 [3]: 7070 nM; CC50 at 1.5 h [4]: > 50000 nM
9 | Cc1ccccc1CNn1c(=O)c(C2=NS(=O)(=O)c3ccccc3N2)c(O)c2ccccc21 | 481 nM | 6120 nM |  | 
10 | O=S1(=O)N=C(c2cn(Cc3ccccc3)c3ccccc23)Nc2ccccc21 |  |  | inactive | EC50 [3]: 1860 nM; CC50 at 1.5 h [4]: > 50000 nM
11 | O=c1c(C2=NS(=O)(=O)c3ccccc3N2)c(O)c2ccccc2n1NCc1ccc(Cl)s1 | 1450 nM | 4780 nM |  | 
12 | CCCn1cc(C2=NS(=O)(=O)c3cc(I)ccc3N2)c2ccccc21 |  |  | inactive | 
13 | O=c1c(C2=NS(=O)(=O)c3ccccc3N2)c(O)c2ccccc2n1NC1CCCCCC1 | 217 nM | 1040 nM |  | 
14 | CCC(CC)Nn1c(=O)c(C2=NS(=O)(=O)c3ccccc3N2)c(O)c2ccccc21 | 120 nM | 2460 nM |  | 
15 | CCCC(CC)Nn1c(=O)c(C2=NS(=O)(=O)c3ccccc3N2)c(O)c2ccccc21 (centres undefined) | 386 nM | 1890 nM |  | 
16 | O=c1c(C2=NS(=O)(=O)c3ccccc3N2)c(O)c2ccccc2n1NCC1CCCCC1 | 150 nM | 2530 nM |  | 
17 | O=c1c(C2=NS(=O)(=O)c3ccccc3N2)c(O)c2ccccc2n1NC1=CCOC=C1 | 439 nM | 4630 nM |  | 
18 | O=c1c(C2=NS(=O)(=O)c3ccccc3N2)c(O)c2ccccc2n1NCC1CC1 | 145 nM | 285 nM |  | 
19 | O=c1c(C2=NS(=O)(=O)c3ccccc3N2)c(O)c2ccccc2n1NCc1ccoc1 | 133 nM | 1550 nM |  | 
20 | CCCC(CCC)Nn1c(=O)c(C2=NS(=O)(=O)c3ccccc3N2)c(O)c2ccccc21 | 1800 nM | 2240 nM |  | 
21 | C=CCn1cc(C2=NS(=O)(=O)c3cc(Br)cnc3N2)c2ccccc21 |  |  | inactive | EC50 [3]: 25400 nM; CC50 at 1.5 h [4]: > 50000 nM
22 | CCCCn1cc(C2=NS(=O)(=O)c3ccccc3N2)c2cc(Br)ccc21 |  |  | inactive | EC50 [3]: 9900 nM; CC50 at 1.5 h [4]: 37200 nM
23 | CCCCCNn1c(=O)c(C2=NS(=O)(=O)c3ccccc3N2)c(O)c2ccccc21 | 100 nM | 928 nM |  | 
24 | O=c1c(C2=NS(=O)(=O)c3ccccc3N2)c(O)c2ccccc2n1NCc1ccco1 | 305 nM | 3260 nM |  | 
25 | CCCCn1cc(C2=NS(=O)(=O)c3ccccc3N2)c2ccccc21 |  |  | inactive | EC50 [3]: 8010 nM; CC50 at 1.5 h [4]: > 50000 nM
26 | CCCn1cc(C2=NS(=O)(=O)c3cc(Br)ccc3N2)c2ccccc21 |  |  | inactive | 
27 | O=c1c(C2=NS(=O)(=O)c3ccccc3N2)c(O)c2ccccc2n1NC1CCCCC1 | 60 nM | 356 nM |  | 

Row | SMILES | IC50 [1] | IC50 [2] | inhibition [5] | further results
28 | CC(C)n1cc(C2=NS(=O)(=O)c3ccccc3N2)c2ccccc21 |  |  | inactive | 
29 | O=c1c(C2=NS(=O)(=O)c3ccccc3N2)c(O)c2ccccc2n1NCc1cccs1 | 125 nM | 2330 nM |  | 
30 | CC(C)CCn1cc(C2=NS(=O)(=O)c3ccccc3N2)c2cc(Br)ccc21 |  |  | inactive | EC50 [3]: 18400 nM; CC50 at 1.5 h [4]: > 50000 nM
31 | O=S1(=O)N=C(c2cn(Cc3ccccc3)c3ccc(Br)cc23)Nc2ccccc21 |  |  | inactive | 
32 | O=S1(=O)N=C(c2cn(Cc3ccccc3)c3ccccc23)Nc2ncc(Br)cc21 |  |  | inactive | EC50 [3]: 20200 nM; CC50 at 1.5 h [4]: > 50000 nM
33 | CCCn1cc(C2=NS(=O)(=O)c3cc(Br)cnc3N2)c2ccccc21 |  |  | inactive | EC50 [3]: 2960 nM; CC50 at 1.5 h [4]: 16600 nM
34 | CCc1cc(CC[C@]2(C3CCCC3)CC(O)=C(Cc3nc4nc(C)cc(C)n4n3)C(=O)O2)cc(CC)n1 [FILIBUVIR] |  |  |  | EC50 [3]: 41 nM
35 | O=c1c(C2=NS(=O)(=O)c3ccccc3N2)c(O)c2ccccc2n1NC1CCC1 | 108 nM | 278 nM |  | 
36 | CCCCNn1c(=O)c(C2=NS(=O)(=O)c3ccccc3N2)c(O)c2ccccc21 | 161 nM | 951 nM |  | 
37 | CC(Nn1c(=O)c(C2=NS(=O)(=O)c3ccccc3N2)c(O)c2ccccc21)c1ccccc1 (centres undefined) | 1490 nM | 16500 nM |  | 
38 | CC(C)CCn1cc(C2=NS(=O)(=O)c3cc(NS(C)(=O)=O)ccc3N2)c2ccccc21 |  |  | 60% | IC50 [6]: 1200 nM
39 | CCCC(Nn1c(=O)c(C2=NS(=O)(=O)c3ccccc3N2)c(O)c2ccccc21)C(C)C (centres undefined) | 1130 nM | 6400 nM |  | 
40 | CC(C)Nn1c(=O)c(C2=NS(=O)(=O)c3ccccc3N2)c(O)c2ccccc21 | 640 nM | 6350 nM |  | 
41 | O=c1c(C2=NS(=O)(=O)c3ccccc3N2)c(O)c2ccccc2n1NCc1nccs1 | 674 nM | 35800 nM |  | 
42 | CC(C)CCn1cc(C2=NS(=O)(=O)c3ccccc3N2)c2ccccc21 |  |  | inactive | EC50 [3]: 19700 nM; CC50 at 1.5 h [4]: > 50000 nM
43 | CS(=O)(=O)Nc1ccc2c(c1)S(=O)(=O)N=C(c1cn(Cc3ccccc3)c3ccccc13)N2 |  |  | 60% | 
44 | Cc1ccsc1CNn1c(=O)c(C2=NS(=O)(=O)c3ccccc3N2)c(O)c2ccccc21 | 1190 nM | 15000 nM |  | 
45 | O=c1c(C2=NS(=O)(=O)c3ccccc3N2)c(O)c2ccccc2n1NCc1cccc(Br)c1 | 75 nM | 1040 nM |  | 
46 | O=c1c(C2=NS(=O)(=O)c3ccccc3N2)c(O)c2ccccc2n1NC1CCCC1 | 150 nM | 747 nM |  | 
47 | CC(C)n1cc(C2=NS(=O)(=O)c3cc(Br)cnc3N2)c2ccccc21 |  |  | inactive | 
48 | Cc1cccc(CNn2c(=O)c(C3=NS(=O)(=O)c4ccccc4N3)c(O)c3ccccc32)c1 | 212 nM | 8210 nM |  | 
49 | CCCn1cc(C2=NS(=O)(=O)c3ccccc3N2)c2ccccc21 |  |  | inactive | EC50 [3]: 4150 nM; CC50 at 1.5 h [4]: > 50000 nM
50 | CC(C)(C)CCNn1c(=O)c(C2=NS(=O)(=O)c3ccccc3N2)c(O)c2ccccc21 | 135 nM | 411 nM |  | 
51 | Fc1ccccc1-c1nc2ccn(Cc3ccc(-c4ccc(C(F)(F)F)cc4C(F)(F)F)nn3)cc-2n1 [TEGOBUVIR] |  |  |  | EC50 [3]: 0.7 nM
52 | O=c1c(C2=NS(=O)(=O)c3ccccc3N2)c(O)c2ccccc2n1NCc1ccc(Br)cc1 | 4690 nM | 10400 nM |  | 
53 | CCCCn1cc(C2=NS(=O)(=O)c3cc(Br)cnc3N2)c2ccccc21 |  |  | inactive | EC50 [3]: 5890 nM; CC50 at 1.5 h [4]: 21900 nM
